From US20120100204A1, “TGF-Beta Stimulating Agent Compositions and Combinations” (TCP INNOVATIONS LTD, priority 2007, published 2012)

Assays:
tgfb3 mRNA = tgfb3 mRNA level by quantitative PCR in human aortic vascular smooth muscle cells; type: cell-based; details: 24 hrs
Experimental: (1995) Cardiovasc. Res. 29:848-55). […] The cells were then incubated for either 24 hrs or 72 hrs depending on the experiment. All treatment conditions were established in triplicate. The level of mRNA for tgfb1, tgfb2 and tgfb3 were estimated by quantitative PCR. The media was removed and RNA was carefully prepared using the Ambion RNAqueous4PCR kit (Ambion#1914) in accordance with the manufacturer's instructions. The purity of the RNA and the quantity was assessed spectrophotometrically. […] This analysis results in both a gel-like image as well as electrophoretic data. Indications of RNA degradation are: (a) decreasing ratio of ribosomal bands (b) additional peaks bellow the ribosomal bands (c) Decrease in overall RNA signal (d) shift towards shorter fragments. […] Next, the RNA was converted to cDNA using the ABI High-Capacity cDNA Archive Kit, in accordance with manufacturer's instructions. […] Samples were vortexed to ensure thorough mixing. cDNA was aliquoted into ABI 384 well plates using a multi-channel pipette, 4.5 μl of sample into each well. Samples were assayed in triplicate (that is, nine determinations in total were made for each condition, being three separate assays on each of three replicate culture wells). The assay mix and Universal Master Mix were prepared and aliquoted across the 384 well plates 5.5 μl in each well, using a single channel pipette. […] Universal Master Mix=5 μl; cDNA=4.5 μl. The plates were then heat sealed using Abgene clear seal strong plastic heat seals, and then cycled and scanned using the ABI 9700HT under the following conditions: 95° C. for 10 minutes to activate the AmpliTaq GOLD, then 40 cycles of: 95° C. for 15 sec (Denaturation), 60° C. for 60 […]). […] Quantitative PCR was performed using several primer/probe sets. […] We used both commercially available primer/probe sets (ABI Taqman pre-validated assays), using both available sets in the ABI database for tgfb1 and tgfb2, as well as the single available set for tgfb3. In addition, we used our own manual design probe/primer set for each of tgfb1, tgfb2 and tgfb3. […] In all quantitative PCR experiments, several additional controls were included: firstly, a control for each sample is run with no reverse transcription to ensure the mRNA sample is not contaminated with genomic DNA (although the manual design probe/primer sets were all selected to cross an exon/exon boundary, ensuring no detectable amplicon is produced from genomic DNA templates). […] Failure of either control led to the repeat of the entire experiment.

[1] = critical micelle concentration; type: physicochemical; details: in the presence of 20% foetal calf serum
apoE-deficient mice = test: vascular lipid lesion formation at the aortic root, Oil Red O staining; type: in vivo; details: for Intimal lipid lesion area / Lipid lesion area / Total intimal area / Intimal:media area ratio: Aspirin 30 mg/kg/day, mean ± SD; for reduction of vascular lipid lesion area: Tamoxifen 1 mg/kg/day p.o, vs control
From the text: Adult male apoE-deficient mice, back-crossed onto a C57B16 background for at least five generations, were randomised into groups of eight animals at 12 weeks of age, such that each group had similar average body weight. […] The amount of food eaten and the body weight of each mouse was monitored daily for the first week, and once per week thereafter. After 12 weeks of treatment, the mice were sacrificed by CO2 asphyxiation, and heart & lung blocks were excised, embedded in Cryo-M-bed (Bright Instruments, UK) without fixation and snap frozen in liquid nitrogen.
Sections were then prepared from the aortic root according to the Paigen Strategy (a defined sequence of cutting sections which allow reproducible comparison between animals; see for example Grainger et al. (1995) Nature Med. 1:1067-72 and the references therein). 4 μm crysosections were cut using a motordriven cryotome (Bright Instruments) and collected onto poly-L-lysine coated glass microscope slides, then fixed in ice-cold acetone for 90 secs, allowed to air dry and stored at −20° C. until analysed.
The extent of vascular lipid lesion formation was assessed by Oil Red O staining, with a Fast Green counterstain, a standard histological procedure well known in the art. Briefly, five sections (selected according to the Paigen strategy) from each animal were passed through graded alcohol solutions, then stained in Oil Red O for 12 minutes, washed several times and then counterstained by dipping in Fast Green for 5-10 secs, and then dip washed in several changes of clean water. After air drying, an appropriate mountant was applied (simple glycerol-based moutants are most appropriate for this task), followed by a coverslip using acrylic varnish surrounding the coverslip to hold it in place. Slides were then analysed using a simple inverted microscope (no phase contrast; 10× objective; Olympus AX series), fitted with a digital camera to capture images of the entire aortic wall. The images were subsequently processed, blind to the treatment status of the animal, using Openlab image analysis software (Improvision, UK) running on an Apple Macintosh computer. On each image, the user delineated the external elastic lamina, internal elastic lamina and the luminal surface of the vessel wall, and the software reported the total intimal area, the intimal:medial area ratio, the total neutral lipid area and the intimal lipid area. The values from each image were summed (except for intimal:media area ratio, which were averaged), and then the values from each slide were summed (or averaged, as above) to yield a value for each parameter for each animal. […]
Adult male apoE-deficient mice were treated, in groups of 8, with fish oil (Seven Seas, UK), aspirin or both agents simultaneously from 12 weeks of age until 24 weeks of age, exactly as described in Example 2.
Mice were sacrificed and heart & lung blocks prepared and processed exactly as described in Example 2. Sections were prepared in accordance with the Paigen Strategy, as in example 2. The extent of lipid lesion formation was assessed by Oil Red 0 staining with Fast Green counterstain, exactly as in example 2.

DBA/1 mice = test: collagen-induced arthritis, footpad thickness; type: in vivo; details: from the booster injection onwards, Tamoxifen 1 mg/kg/day p.o, aspirin 30 mg/kg/day p.o
Experimental: Collagen-induced arthritis was induced in adult male DBA/1 mice as previously described (Courtenay et al. (1980) Nature 283:666-8). Adult (12 week old) male DBA/1 mice were divided into groups of six animals. Mice received 100 μg per mouse of bovine type II collagen (Sigma) in Freunds Complete Adjuvant (FCA) by the subcutaneous route, while a control group received an identical injection of type I collagen in FCA. Twenty-one days later, all groups of mice received an intraperitoneal booster injection containing 100 μg per mouse of the same collagen type as previously, but in the absence of adjuvant. […] Foodpad thickness was determined each day using a digital caliper EC1507 (Moore & Wright) accurate to 0.01 mm. The thickness of each footpad was determined three times on each day by a single operator blind to the treatment condition of the mouse, and the footpad thickness of each mouse on each day was reported as the mean for the three measurements for all four paws. Errors represent the standard error of the mean among the six animals in each group.

[2] = Tamoxifen treatment; cited from earlier work
tgfb2 mRNA = tgfb2 mRNA level by quantitative PCR in human aortic vascular smooth muscle cells; type: cell-based; details: 24 hrs
Experimental: (1995) Cardiovasc. Res. 29:848-55). […] The cells were then incubated for either 24 hrs or 72 hrs depending on the experiment. All treatment conditions were established in triplicate. The level of mRNA for tgfb1, tgfb2 and tgfb3 were estimated by quantitative PCR. The media was removed and RNA was carefully prepared using the Ambion RNAqueous4PCR kit (Ambion#1914) in accordance with the manufacturer's instructions. The purity of the RNA and the quantity was assessed spectrophotometrically. […] This analysis results in both a gel-like image as well as electrophoretic data. Indications of RNA degradation are: (a) decreasing ratio of ribosomal bands (b) additional peaks bellow the ribosomal bands (c) Decrease in overall RNA signal (d) shift towards shorter fragments. […] Next, the RNA was converted to cDNA using the ABI High-Capacity cDNA Archive Kit, in accordance with manufacturer's instructions. […] Samples were vortexed to ensure thorough mixing. cDNA was aliquoted into ABI 384 well plates using a multi-channel pipette, 4.5 μl of sample into each well. Samples were assayed in triplicate (that is, nine determinations in total were made for each condition, being three separate assays on each of three replicate culture wells). The assay mix and Universal Master Mix were prepared and aliquoted across the 384 well plates 5.5 μl in each well, using a single channel pipette. […] Universal Master Mix=5 μl; cDNA=4.5 μl. […] Quantitative PCR was performed using several primer/probe sets. […] In all quantitative PCR experiments, several additional controls were included: firstly, a control for each sample is run with no reverse transcription to ensure the mRNA sample is not contaminated with genomic DNA (although the manual design probe/primer sets were all selected to cross an exon/exon boundary, ensuring no detectable amplicon is produced from genomic DNA templates). […]

[3] = 12 weeks in chow, TMX 1 mg/kg/day
[4] = 12 to 24 weeks of age, Fish oils 100 mg/kg/day

In the case of `CC/C(=C(\c1ccccc1)c1ccc(OCCN(C)C)cc1)c1ccccc1` [Tamoxifen], the “Level of mRNA, estimated by qPCR: tgfb3” value (tgfb3 mRNA; 3.3 μM T) is reported as 0.92 ± 0.16 fold-change, the “Level of mRNA, estimated by qPCR: tgfb3” value (tgfb3 mRNA; 10 μM T) is reported as 1.19 ± 0.21 fold-change and the “Level of mRNA, estimated by qPCR: tgfb3” value (tgfb3 mRNA; 33 μM T) is reported as 1.31 ± 0.11 fold-change. The “doses that significantly increased tgfb3 mRNA” value (tgfb3 mRNA) was at least 10 µM, the critical micelle concentration [1] was “approximately 50 μM” and the “Intimal lipid lesion area” value (apoE-deficient mice; [3]) was 9,393 ± 2,221 * μm^2. For the same molecule, the Lipid lesion area (apoE-deficient mice; [3]) was 10,794 ± 2,820 * μm^2, the Total intimal area (apoE-deficient mice; [3]) was 64,428 ± 4,294 μm^2 and the “reduction of vascular lipid lesion area” value (apoE-deficient mice; aspirin 30 mg/kg/day p.o) was 72%. The “reduction of the maximal collagen-II induced footpad swelling” value (DBA/1 mice) was 36% and the “endothelial function, a surrogate marker of atherosclerotic disease burden” value [2] was “improved endothelial function”.

With `CC(=O)Oc1ccccc1C(=O)O` [Aspirin, acetylsalicylic acid] the “Level of mRNA, estimated by qPCR: tgfb2” value (tgfb2 mRNA; 10 μM A) was 0.92 ± 0.10 fold-change, the “Level of mRNA, estimated by qPCR: tgfb2” value (tgfb2 mRNA; 33 μM A) was 1.00 ± 0.17 fold-change and the “Level of mRNA, estimated by qPCR: tgfb2” value (tgfb2 mRNA; 100 μM A) was 1.03 ± 0.16 fold-change. The “Level of mRNA, estimated by qPCR: tgfb3” value (tgfb3 mRNA; 10 μM A) was 1.09 ± 0.08 fold-change, the “Level of mRNA, estimated by qPCR: tgfb3” value (tgfb3 mRNA; 33 μM A) was 1.06 ± 0.13 fold-change and the “Level of mRNA, estimated by qPCR: tgfb3” value (tgfb3 mRNA; 100 μM A) was 0.94 ± 0.09 fold-change. For the same molecule, the “Intimal lipid lesion area” value (apoE-deficient mice; [4]) was 31,006 ± 7,176 μm2, the “Intimal:media area ratio” value (apoE-deficient mice; [4]) was 62 ± 9% and the Lipid lesion area (apoE-deficient mice; [4]) was 35,860 ± 8,091 μm2. The Total intimal area (apoE-deficient mice; [4]) was 65,209 ± 6.712 μm2, the “Intimal lipid lesion area” value (apoE-deficient mice; [3]) was 31,006 ± 7,176 μm^2 and the “Intimal:media area ratio” value (apoE-deficient mice; [3]) was 62 ± 9%. The Lipid lesion area (apoE-deficient mice; [3]) was 35,860 ± 8,091 μm^2, the Total intimal area (apoE-deficient mice; [3]) was 65,209 ± 6,712 μm^2 and the “effect on total intimal area and intimal:medial area ratio” value (apoE-deficient mice; Example 2) was “did not affect”. The “reduction of vascular lipid lesion area” value (apoE-deficient mice; aspirin 30 mg/kg/day p.o) was 6% and the “effect on any measure of vascular lipid lesion area or plaque size” value (apoE-deficient mice; administered separately, fish oil 100 mg/kg/day p.o, aspirin 30 mg/kg/day p.o) was “no statistically significant effect”.
